According to ChEMBL document CHEMBL3396988, “Structure-based design of inhibitors of coagulation factor XIa with novel P1 moieties” (Bioorg Med Chem Lett, 2015):

Columns and labels:
[1] = target: Tissue-type plasminogen activator (Homo sapiens, UniProt P00750); assay: Inhibition of TPA (unknown origin)
[2] = Half life in dog at 1 mg/kg, po or 0.4 mg/kg, iv administered in discrete format; assay type: ADME, organism-based, Canis lupus familiaris; settings: in vivo
Coagulation factor XI [3] = target: T1, Coagulation factor XI (Homo sapiens, UniProt P03951); assay: Inhibition of human coagulation factor 11a at 25 degC
Kallikrein-1 = Kallikrein-1 (Homo sapiens, UniProt P06870); assay: Inhibition of tissue kallikrein (unknown origin)
[4] = Permeability of the compound at pH 7.4 by PAMPA method; assay type: ADME; settings: read-out: permeability
[5] = Inhibition of chymotrypsin (unknown origin); design: species or system Homo sapiens
Plasminogen = Plasminogen (Homo sapiens, UniProt P00747); assay: Inhibition of plasmin (unknown origin)
[6] = Volume of distribution at steady state in dog at 1 mg/kg, po or 0.4 mg/kg, iv administered in discrete format; assay type: ADME, organism-based, Canis lupus familiaris; settings: in vivo, read-out: Vdss
[7] = Oral bioavailability in dog at 1 mg/kg administered in discrete format; assay type: ADME, organism-based, Canis lupus familiaris; settings: in vivo
[8] = Clearance in dog at 1 mg/kg, po or 0.4 mg/kg, iv administered in discrete format; assay type: ADME, organism-based, Canis lupus familiaris; settings: in vivo
Trypsin = Trypsin (Homo sapiens, UniProt P07477+P07478+P35030); assay: Inhibition of human trypsin at 25 degC; assay type: protein assay
[9] = Clearance in dog at 0.5 mg/kg, po or 0.4 mg/kg, iv administered in cassette format; assay type: ADME, organism-based, Canis lupus familiaris; settings: in vivo
[10] = Half life in dog at 0.5 mg/kg, po or 0.4 mg/kg, iv administered in cassette format; assay type: ADME, organism-based, Canis lupus familiaris; settings: in vivo
[11] = Volume of distribution at steady state in dog at 0.5 mg/kg, po or 0.4 mg/kg, iv administered in cassette format; assay type: ADME, organism-based, Canis lupus familiaris; settings: in vivo, read-out: Vdss
[12] = Oral bioavailability in dog at 0.5 mg/kg administered in cassette format; assay type: ADME, organism-based, Canis lupus familiaris; settings: in vivo
Plasma = assay: Anticoagulant activity in human plasma assessed as compound level causing 1.5 times increase in activated partial […] time; assay type: functional
[13] = Half life in human liver microsomes; assay type: ADME
Coagulation factor X = Coagulation factor X (Homo sapiens, UniProt P00742); assay: Inhibition of coagulation factor 10a (unknown origin)
Coagulation factor IX = Coagulation factor IX (Homo sapiens, UniProt P00740); assay: Inhibition of coagulation factor 9a (unknown origin)
Coagulation factor VII = target: T2, Coagulation factor VII (Homo sapiens, UniProt P08709); assay: Inhibition of coagulation factor 7a (unknown origin)
T2 sequence (P08709 whole entry): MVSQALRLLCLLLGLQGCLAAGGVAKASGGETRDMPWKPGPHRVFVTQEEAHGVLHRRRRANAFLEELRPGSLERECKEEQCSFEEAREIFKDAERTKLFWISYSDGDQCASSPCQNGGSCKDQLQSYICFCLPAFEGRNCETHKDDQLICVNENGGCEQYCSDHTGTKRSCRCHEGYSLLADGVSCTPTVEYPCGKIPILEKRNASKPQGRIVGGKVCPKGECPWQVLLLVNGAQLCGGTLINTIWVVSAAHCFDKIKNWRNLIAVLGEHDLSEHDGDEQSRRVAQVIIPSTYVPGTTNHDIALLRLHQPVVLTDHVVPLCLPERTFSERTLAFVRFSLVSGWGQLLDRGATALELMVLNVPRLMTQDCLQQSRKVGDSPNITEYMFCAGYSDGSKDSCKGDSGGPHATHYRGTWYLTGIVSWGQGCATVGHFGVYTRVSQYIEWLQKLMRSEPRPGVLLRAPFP

Prothrombin = Prothrombin (Homo sapiens, UniProt P00734); assay: Inhibition of thrombin (unknown origin)
Plasma kallikrein = Plasma kallikrein (Homo sapiens, UniProt P03952); assay: Inhibition of plasma kallikrein (unknown origin)
Coagulation factor XI [14] = target: T1, Coagulation factor XI; assay: Inhibition of human coagulation factor 11a at 37 degC

Sequence of Kallikrein-1 (P06870 whole entry): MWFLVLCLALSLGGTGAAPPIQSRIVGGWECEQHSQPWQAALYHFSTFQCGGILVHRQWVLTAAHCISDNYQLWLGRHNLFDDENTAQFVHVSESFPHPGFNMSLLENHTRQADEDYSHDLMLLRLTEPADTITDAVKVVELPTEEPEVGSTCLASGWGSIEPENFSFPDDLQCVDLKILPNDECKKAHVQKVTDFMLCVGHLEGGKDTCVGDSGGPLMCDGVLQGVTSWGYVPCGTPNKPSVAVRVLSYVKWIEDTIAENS
T1 sequence (P03951 19-387 limits assumed): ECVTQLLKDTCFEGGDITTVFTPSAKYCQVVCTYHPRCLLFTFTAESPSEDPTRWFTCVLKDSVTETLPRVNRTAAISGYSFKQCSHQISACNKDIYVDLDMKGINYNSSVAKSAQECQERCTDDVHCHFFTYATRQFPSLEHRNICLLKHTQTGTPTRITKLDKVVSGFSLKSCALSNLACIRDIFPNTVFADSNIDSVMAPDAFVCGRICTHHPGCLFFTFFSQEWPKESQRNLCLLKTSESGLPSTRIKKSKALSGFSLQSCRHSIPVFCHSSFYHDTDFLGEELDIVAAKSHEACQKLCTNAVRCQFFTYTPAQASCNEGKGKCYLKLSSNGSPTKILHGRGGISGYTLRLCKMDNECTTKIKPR
T1 sequence (P03951 388-625 limits assumed): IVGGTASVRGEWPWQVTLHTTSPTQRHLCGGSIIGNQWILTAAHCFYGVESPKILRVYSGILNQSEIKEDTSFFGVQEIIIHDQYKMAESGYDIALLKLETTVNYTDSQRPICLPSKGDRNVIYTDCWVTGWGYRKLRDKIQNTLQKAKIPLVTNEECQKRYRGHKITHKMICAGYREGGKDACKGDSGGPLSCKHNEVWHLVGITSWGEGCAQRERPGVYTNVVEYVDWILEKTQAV
Sequence of Plasminogen (P00747 97-580 limits assumed): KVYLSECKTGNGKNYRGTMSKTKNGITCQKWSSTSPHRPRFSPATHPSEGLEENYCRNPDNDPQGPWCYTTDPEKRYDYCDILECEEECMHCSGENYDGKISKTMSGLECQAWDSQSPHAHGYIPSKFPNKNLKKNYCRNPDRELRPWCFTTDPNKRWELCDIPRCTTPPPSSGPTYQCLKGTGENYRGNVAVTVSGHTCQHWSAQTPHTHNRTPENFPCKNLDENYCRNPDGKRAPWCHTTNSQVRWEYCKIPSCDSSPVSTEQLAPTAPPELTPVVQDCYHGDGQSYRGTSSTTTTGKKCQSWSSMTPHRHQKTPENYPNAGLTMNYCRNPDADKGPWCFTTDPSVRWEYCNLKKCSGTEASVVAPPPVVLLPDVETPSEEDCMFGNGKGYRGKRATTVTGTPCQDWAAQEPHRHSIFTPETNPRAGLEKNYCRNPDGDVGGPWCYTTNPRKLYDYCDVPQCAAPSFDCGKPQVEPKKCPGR
Sequence of Plasminogen (P00747 581-810 limits assumed): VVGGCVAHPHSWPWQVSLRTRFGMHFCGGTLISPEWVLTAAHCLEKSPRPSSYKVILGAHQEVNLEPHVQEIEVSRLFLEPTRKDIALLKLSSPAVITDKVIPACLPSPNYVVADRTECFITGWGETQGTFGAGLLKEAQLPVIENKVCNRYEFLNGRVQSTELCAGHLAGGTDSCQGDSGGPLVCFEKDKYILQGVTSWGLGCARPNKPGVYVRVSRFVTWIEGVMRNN
Sequence of Tissue-type plasminogen activator (P00750 whole entry): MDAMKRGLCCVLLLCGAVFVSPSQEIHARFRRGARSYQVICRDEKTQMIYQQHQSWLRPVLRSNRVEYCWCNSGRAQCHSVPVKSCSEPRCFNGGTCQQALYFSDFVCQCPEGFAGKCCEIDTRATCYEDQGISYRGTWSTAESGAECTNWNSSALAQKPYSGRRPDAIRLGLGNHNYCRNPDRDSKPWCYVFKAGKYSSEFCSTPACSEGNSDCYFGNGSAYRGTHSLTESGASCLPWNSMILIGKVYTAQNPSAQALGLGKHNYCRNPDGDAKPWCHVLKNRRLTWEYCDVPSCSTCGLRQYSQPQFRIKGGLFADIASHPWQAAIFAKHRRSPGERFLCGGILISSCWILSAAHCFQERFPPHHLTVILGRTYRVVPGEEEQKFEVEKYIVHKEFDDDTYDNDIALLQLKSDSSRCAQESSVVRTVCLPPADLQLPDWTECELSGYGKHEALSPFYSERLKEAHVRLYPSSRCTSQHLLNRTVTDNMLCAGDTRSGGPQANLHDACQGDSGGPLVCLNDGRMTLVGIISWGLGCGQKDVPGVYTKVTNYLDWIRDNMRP
Sequence of Plasma kallikrein (P03952 20-390 limits assumed): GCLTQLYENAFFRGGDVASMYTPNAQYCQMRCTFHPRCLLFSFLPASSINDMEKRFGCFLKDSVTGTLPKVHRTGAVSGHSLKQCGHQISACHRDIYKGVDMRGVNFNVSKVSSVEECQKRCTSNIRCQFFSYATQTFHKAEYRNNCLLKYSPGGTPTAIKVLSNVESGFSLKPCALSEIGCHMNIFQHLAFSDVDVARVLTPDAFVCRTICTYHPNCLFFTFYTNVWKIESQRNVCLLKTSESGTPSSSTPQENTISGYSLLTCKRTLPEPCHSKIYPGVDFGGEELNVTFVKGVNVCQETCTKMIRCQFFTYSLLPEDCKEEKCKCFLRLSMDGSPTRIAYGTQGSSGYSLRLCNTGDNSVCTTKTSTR
Sequence of Plasma kallikrein (P03952 391-638 limits assumed): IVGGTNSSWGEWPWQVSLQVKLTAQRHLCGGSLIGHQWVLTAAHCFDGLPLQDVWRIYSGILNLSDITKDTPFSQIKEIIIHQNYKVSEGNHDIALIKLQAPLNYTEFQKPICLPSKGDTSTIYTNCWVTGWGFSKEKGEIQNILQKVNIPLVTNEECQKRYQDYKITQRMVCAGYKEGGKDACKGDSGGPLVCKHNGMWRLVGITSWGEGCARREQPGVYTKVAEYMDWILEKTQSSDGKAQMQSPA
Sequence of Coagulation factor X (P00742 41-179 limits assumed): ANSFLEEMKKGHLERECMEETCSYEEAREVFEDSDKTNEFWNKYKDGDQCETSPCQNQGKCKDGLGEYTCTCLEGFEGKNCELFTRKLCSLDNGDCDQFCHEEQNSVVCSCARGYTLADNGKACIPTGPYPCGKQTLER
Sequence of Coagulation factor X (P00742 235-488 limits assumed): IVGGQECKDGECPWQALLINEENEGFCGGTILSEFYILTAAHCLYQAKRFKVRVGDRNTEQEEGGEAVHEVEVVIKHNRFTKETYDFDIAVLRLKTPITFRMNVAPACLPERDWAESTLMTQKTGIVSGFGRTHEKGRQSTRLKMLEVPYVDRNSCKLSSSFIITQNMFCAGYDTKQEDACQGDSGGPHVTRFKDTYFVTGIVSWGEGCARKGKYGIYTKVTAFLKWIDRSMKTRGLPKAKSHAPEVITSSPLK
Sequence of Coagulation factor IX (P00740 47-191 limits assumed): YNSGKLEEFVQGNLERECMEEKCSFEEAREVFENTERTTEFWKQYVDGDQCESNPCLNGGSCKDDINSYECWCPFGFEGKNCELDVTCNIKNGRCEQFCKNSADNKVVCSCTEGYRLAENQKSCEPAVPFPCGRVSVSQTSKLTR
Sequence of Coagulation factor IX (P00740 227-461 limits assumed): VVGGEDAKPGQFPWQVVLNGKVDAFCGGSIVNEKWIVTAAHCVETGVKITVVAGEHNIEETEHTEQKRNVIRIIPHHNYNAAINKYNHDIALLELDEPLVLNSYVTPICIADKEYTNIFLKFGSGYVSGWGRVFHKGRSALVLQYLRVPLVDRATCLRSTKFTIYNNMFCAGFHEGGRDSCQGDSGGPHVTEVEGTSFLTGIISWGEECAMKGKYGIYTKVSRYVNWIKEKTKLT

Ki (Coagulation factor XI [3]) | Ki (Trypsin) | clearance [9] | half-life [10] | Vd [11] | SMILES | further results
0.31 nM |  |  |  |  | NC[C@H]1CC[C@H](C(=O)N[C@@H](Cc2ccccc2)c2nc(-c3ccc4c(N)n[nH]c4c3)c(Cl)[nH]2)CC1 | Ki [1]: > 22000 nM; half-life [2]: 1.88 h; Ki (Kallikrein-1): 650 nM; Papp [4]: 0.03 ×10⁻⁶ cm/s; Ki [5]: > 20800 nM; Ki (Plasminogen): 8400 nM; Vd [6]: 0.92 L/kg; bioavailability [7]: 3.6%; clearance [8]: 11.2 mL/min/kg
1.49 nM | 1040 nM |  |  |  | NCC12CCC(C(=O)N[C@@H](Cc3ccccc3)c3nc(-c4ccc5c(N)n[nH]c5c4)c(Cl)[nH]3)(CC1)CC2 | 
1.16 nM | 59 nM |  |  |  | NCc1ccc(C(=O)N[C@@H](Cc2ccccc2)c2nc(-c3ccc4c(N)n[nH]c4c3)c(Cl)[nH]2)cc1 | 
1.03 nM | 58 nM |  |  |  | NCc1ccc(C(=O)N[C@@H](Cc2ccccc2)c2nc(-c3ccc4c(N)n[nH]c4c3)c(Cl)[nH]2)c(F)c1 | 
19 nM | 380 nM | 49.5 mL/min/kg | 0.14 h | 1 L/kg | Nc1nccc2cc(C(=O)N[C@@H](Cc3ccccc3)c3nc(-c4ccc5c(N)n[nH]c5c4)c(Cl)[nH]3)ccc12 | Papp [4]: 3.8 ×10⁻⁶ cm/s; bioavailability [12]: < 2%
58 nM | 1400 nM |  |  |  | Nc1n[nH]c2cc(C(=O)N[C@@H](Cc3ccccc3)c3nc(-c4ccc5c(N)n[nH]c5c4)c(Cl)[nH]3)ccc12 | 
125 nM | > 5000 nM |  |  |  | Nc1n[nH]c2cc(-c3nc([C@H](Cc4ccccc4)NC(=O)c4ccc5c(N)noc5c4)[nH]c3Cl)ccc12 | 
2900 nM | > 5000 nM |  |  |  | Nc1n[nH]c2cc(-c3nc([C@H](Cc4ccccc4)NC(=O)[C@H]4CC[C@H](C(N)=O)CC4)[nH]c3Cl)ccc12 | 
68 nM | > 6000 nM | 15.4 mL/min/kg | 1.5 h | 0.9 L/kg | C[C@H]1CC[C@H](C(=O)N[C@@H](Cc2ccccc2)c2nc(-c3ccc4c(N)n[nH]c4c3)c(Cl)[nH]2)CC1 | Papp [4]: 0.46 ×10⁻⁶ cm/s; bioavailability [12]: < 1%
310 nM | > 5000 nM | 12.5 mL/min/kg | 1.4 h | 1.5 L/kg | NC(=O)c1ccc(C(=O)N[C@@H](Cc2ccccc2)c2nc(-c3ccc4c(N)n[nH]c4c3)c(Cl)[nH]2)cc1 | bioavailability [12]: 26%
390 nM | > 5000 nM |  |  |  | Cc1ccc(C(=O)N[C@@H](Cc2ccccc2)c2nc(-c3ccc4c(N)n[nH]c4c3)c(Cl)[nH]2)cc1 | 
200 nM | > 5000 nM | 9 mL/min/kg | 1.8 h | 1.9 L/kg | Cc1ccc(C(=O)N[C@@H](Cc2ccccc2)c2nc(-c3ccc4c(N)n[nH]c4c3)c(Cl)[nH]2)c(F)c1 | Papp [4]: 54.7 ×10⁻⁶ cm/s; bioavailability [12]: 30%
280 nM | > 6000 nM |  |  |  | COc1ccc(C(=O)N[C@@H](Cc2ccccc2)c2nc(-c3ccc4c(N)n[nH]c4c3)c(Cl)[nH]2)c(F)c1 | 
65 nM | > 6000 nM | 15.2 mL/min/kg | 1.2 h | 1.3 L/kg | COc1cc(F)c(C(=O)N[C@@H](Cc2ccccc2)c2nc(-c3ccc4c(N)n[nH]c4c3)c(Cl)[nH]2)c(F)c1 | Papp [4]: 23.4 ×10⁻⁶ cm/s; bioavailability [12]: 49%
530 nM | > 5000 nM |  |  |  | Nc1n[nH]c2cc(-c3nc([C@H](Cc4ccccc4)NC(=O)c4cc(Cl)ccc4F)[nH]c3Cl)ccc12 | 
54 nM |  |  |  |  | Nc1n[nH]c2cc(-c3nc([C@H](Cc4ccccc4)NC(=O)NCc4cccc(Cl)c4)[nH]c3Cl)ccc12 | 
31 nM |  |  |  |  | Nc1n[nH]c2cc(-c3nc([C@H](Cc4ccccc4)NC(=O)NCc4cc(Cl)ccc4F)[nH]c3Cl)ccc12 | 
53 nM |  |  |  |  | Cc1ccc(Cl)cc1CNC(=O)N[C@@H](Cc1ccccc1)c1nc(-c2ccc3c(N)n[nH]c3c2)c(Cl)[nH]1 | 

Ki (Coagulation factor XI [3]) | Ki (Trypsin) | clearance [9] | half-life [10] | Vd [11] | SMILES | further results
240 nM |  |  |  |  | Nc1n[nH]c2cc(-c3nc([C@H](Cc4ccccc4)NC(=O)NCc4cc(Cl)ccc4C(F)(F)F)[nH]c3Cl)ccc12 | 
75 nM |  |  |  |  | COc1ccc(Cl)cc1CNC(=O)N[C@@H](Cc1ccccc1)c1nc(-c2ccc3c(N)n[nH]c3c2)c(Cl)[nH]1 | 
57 nM |  |  |  |  | Nc1n[nH]c2cc(-c3nc([C@H](Cc4ccccc4)NC(=O)NCc4cccc(Cl)c4F)[nH]c3Cl)ccc12 | 
23 nM |  |  |  |  | Nc1n[nH]c2cc(-c3nc([C@H](Cc4ccccc4)NC(=O)NCc4c(F)ccc(Cl)c4F)[nH]c3Cl)ccc12 | 
5.8 nM |  |  |  |  | NCc1ccc(Cl)cc1CNC(=O)N[C@@H](Cc1ccccc1)c1nc(-c2ccc3c(N)n[nH]c3c2)c(Cl)[nH]1 | Activity (Plasma): 3.9 µM
1.5 nM |  | 31.2 mL/min/kg | 2.1 h | 1.4 L/kg | Nc1n[nH]c2cc(-c3nc([C@H](Cc4ccccc4)NC(=O)NCc4cc(Cl)ccc4-n4cnnn4)[nH]c3Cl)ccc12 | half-life [13]: < 0.0167 h; Activity (Plasma): 1.8 µM; bioavailability [12]: 0%
450 nM |  |  |  |  | Nc1n[nH]c2cc(-c3nc([C@H](Cc4ccccc4)NC(=O)NCc4cc(Cl)ccc4-n4cccn4)[nH]c3Cl)ccc12 | half-life [13]: < 0.0167 h
46 nM |  |  |  |  | Nc1n[nH]c2cc(-c3nc([C@H](Cc4ccccc4)NC(=O)NCc4cc(Cl)ccc4-n4cncn4)[nH]c3Cl)ccc12 | half-life [13]: < 0.0167 h; Activity (Plasma): 34 µM
3.4 nM |  | 34.5 mL/min/kg | 2.8 h | 2.8 L/kg | COC(=O)Nc1ccc(-c2nc([C@H](Cc3ccccc3)NC(=O)NCc3cc(Cl)ccc3-n3cnnn3)[nH]c2Cl)cc1 | half-life [13]: < 0.0167 h; Activity (Plasma): 5.6 µM
1.9 nM |  | 38.3 mL/min/kg | 2.6 h | 4.4 L/kg | COC(=O)Nc1ccc(-c2nc([C@H](Cc3ccccc3)NC(=O)CCc3cc(Cl)ccc3-n3cnnn3)[nH]c2Cl)cc1 | Activity (Plasma): 5.2 µM
2.7 nM |  | 9 mL/min/kg | 3.1 h | 1.6 L/kg | COC(=O)Nc1ccc(-c2nc([C@H](Cc3ccccc3)NC(=O)/C=C/c3cc(Cl)ccc3-n3cnnn3)[nH]c2Cl)cc1 | half-life [13]: 0.55 h; Activity (Plasma): 5.3 µM; bioavailability [12]: 3%
6.7 nM | > 6200 nM |  | 2.4 h | 3.4 L/kg | COC(=O)Nc1ccc(-c2c[nH]c([C@H](Cc3ccccc3)NC(=O)/C=C/c3cc(Cl)ccc3-n3cnnn3)n2)cc1 | Ki [1]: 17000 nM; Ki (Coagulation factor X): 1500 nM; Ki (Coagulation factor IX): > 60000 nM; Ki (Coagulation factor VII): > 13000 nM; Ki (Kallikrein-1): > 30000 nM; Ki (Prothrombin): > 15000 nM; Ki [5]: 1300 nM; Ki (Plasminogen): > 41000 nM; Ki (Plasma kallikrein): 240 nM; Activity (Plasma): 8.6 µM; bioavailability [12]: 10.4%
 |  |  |  |  | Nc1n[nH]c2cc(-c3c[nH]c([C@H](Cc4ccccc4)NC(=O)/C=C/c4cc(Cl)ccc4-n4cnnn4)n3)ccc12 | Ki (Coagulation factor XI [14]): 5 nM; Activity (Plasma): 4 µM
1.2 nM | > 6200 nM | 16 mL/min/kg | 2.2 h | 0.8 L/kg | Nc1n[nH]c2cc(-c3nc([C@H](Cc4ccccc4)NC(=O)/C=C/c4cc(Cl)ccc4-n4cnnn4)[nH]c3Cl)ccc12 | Ki [1]: 19000 nM; Ki (Coagulation factor X): > 1000 nM; Ki (Coagulation factor IX): > 35000 nM; Ki (Coagulation factor VII): > 13000 nM; Ki (Kallikrein-1): 1200 nM; Ki (Prothrombin): > 13000 nM; Ki [5]: 660 nM; Ki (Plasminogen): > 24000 nM; Ki (Plasma kallikrein): 41 nM; Activity (Plasma): 3 µM; bioavailability [12]: 0%
2.6 nM | 2800 nM | 34.8 mL/min/kg | 2.3 h | 2.8 L/kg | Nc1nccc2c1CCC(C(=O)N[C@@H](Cc1ccccc1)c1nc(-c3ccc4c(N)n[nH]c4c3)c(Cl)[nH]1)C2 (single isomer, unassigned; diastereomer A) | Papp [4]: 0.15 ×10⁻⁶ cm/s; bioavailability [12]: < 2%
2.5 nM | 360 nM |  |  |  | Nc1nccc2c1CCC(C(=O)N[C@@H](Cc1ccccc1)c1nc(-c3ccc4c(N)n[nH]c4c3)c(Cl)[nH]1)C2 (single isomer, unassigned; diastereomer B) | 
2.15 nM | 1430 nM |  |  |  | Nc1nccc2c1CCC(C(=O)N[C@@H](Cc1ccccc1)c1nc(-c3ccc4c(N)n[nH]c4c3)c(Cl)[nH]1)C2 (stereo in doubt; 6) | 
